Literature values, collected in patent US20030190354A1 (priority 2002, published 2003).
Where a name gives a salt, the structure may show the parent alone.

Details: 0.2 M sodium chloride

SMILES: COc1ccc(C(CN(C)C)C2(O)CCCCC2)cc1 (racemic) [Venlafaxine hydrochloride, (R/S)-1-[2-(dimethylamino)-1-(4-methoxyphenyl)ethyl] cyclohexanol hydrochloride]
- octanol: water partition coefficient: 0.43
